# Measurements reported in US6610672B2, “Compositions including reduced malto-oligosaccharide preserving agents, and methods for preserving a material” (Grain Processing Corporation, priority 1999, dated 2003).
# Tests used:
# [1] = Ultraviolet absorption (450 nm) over time of buffered lysine solutions with or without malto-oligosaccharide, warmed to 75° C.; assay type: physicochemical
# Experimental: A pH 6 buffered lysine solution was prepared by dissolving L-lysine (0.5 g) in phosphate buffer and adjusting the pH with hydrochloric acid. […] An aqueous solution of a reduced malto-oligosaccharide was prepared by dissolving a reduced malto-oligosaccharide mixture in water to produce a solution having a final solids content of 50% by weight. The buffered lysine solution (2 mL) was dissolved in the aqueous reduced malto-oligosaccharide solution (hydrogenated MALTRIN® M180) (3 mL) to produce a solution.
# [2] = tested on: Fleischmann's baker's yeast; assay: Yeast viability before and after freeze drying (cell counting after plating on YM agar); assay type: cell-based; conditions: yeast viability of freeze dried sample divided by that of control sample
# Experimental: Yeast viability was determined by cell counting after plating on yeast extract, malt extract (YM) agar in accordance with the method described in FDA Bacteriological Analytical Manual, 6th Ed., Ch. 4, pp. 401-402 (1984). Yeast viability is expressed as the number of cells per gram of dry solids (gm.ds). The percent yeast survival was determined by dividing the yeast viability of the freeze dried sample by the yeast viability of the control sample.
# For comparison, a mixture of yeast cells and a malto-oligosaccharide was freeze dried, as follows. A 20% aqueous solution of MALTRIN® M180 (M180) was prepared by dissolving 85.5 g (6.4% moisture) of M180 in […] of deionized water. A suspension of yeast cells was prepared by dissolving 5.78 g of Fleischmann's baker's yeast in 94.3 g of sterile phosphate buffer. The yeast suspension was stirred for 30 minutes to obtain a relatively homogenous yeast mixture. A 10.0 ml aliquot of the yeast suspension was pipetted into the 20% aqueous M180 solution. A control sample was removed to determine yeast viability by plating on YM agar (sample 9A). […] After freeze drying, sample 9B was removed from the pans and analyzed for yeast viability. […]
# A mixture of yeast cells and a reduced malto-oligosaccharide was freeze dried, as follows. […] After freeze drying, samples 9D-1 and 9D-2 were removed from the pans and analyzed for yeast viability. […]
# [3] = tested on: Enzeco® Fungal Lactase Concentrate; assay: Lactase enzyme activity before and after freeze drying (glucose released from a buffered lactose solution); assay type: biochemical
# Experimental: The enzyme activity was determined in accordance with Mazzobre et al., Biopolymer Science: Food and Non Food Applications, Montpellier (France) Sep. 28-30, 1998 Ed. INRA, Paris, 1999 (Les Colloques, no 91). The procedure is based on measuring the amount of glucose released from a buffered lactose solution. The measurement was done using a YSI 2700 glucose analyzer.
# For comparison, a mixture containing lactase and a malto-oligosaccharide was prepared, as follows. A 20% aqueous solution of MALTRIN® M180 (M180) was prepared by dissolving 85.5 g (6.4% moisture) of M180 in 313.5 g of deionized water. Enzeco® Fungal Lactase Concentrate, 1.0 g was added to the slurry and stirred for one hour. A 20.0 ml aliquot of the mixture was removed as a control (sample 8A). The remaining sample was poured into two separate freeze drying pans and each was freeze dried according to the temperature profile in Table 3. The temperature profile shown in column 8B of Table 3 represents the temperature profile for only one of the two samples in the freeze drying pans. The freeze dryer was a Virtis Genesis 25XL unit. Final vacuum of the system was 11.8 mtorr. After freeze drying, the material was removed from the pans and evaluated for enzyme activity. The enzyme activity in column 8B of Table 4 represents an average of the enzyme activities for each of the two samples in the freeze drying pans.
# A mixture containing lactase and a reduced malto-oligosaccharide was freeze dried as follows. A 20% aqueous solution of reduced malto-oligosaccharide with a carbohydrate profile that matches MALTRIN® M180 (H-M180) was prepared by dissolving 83.4 g (4.1% moisture) of the reduced malto-oligosaccharide in 315.6 g of deionized water. Enzeco® Fungal Lactase Concentrate (1.0 g) was added to the slurry and stirred for one hour. A 20.0 ml aliquot of the mixture was removed as a control (sample 8C). The remaining sample was poured into two separate freeze drying pans and freeze dried according to the temperature profile in Table 3 (samples 8D-1 and 8D-2). The freeze dryer was a Virtis Genesis 25XL unit. Final vacuum of the system was 11.8 mtorr. After freeze drying, the material was removed from the pans and evaluated for enzyme activity as described in the previous example.
# For comparison, a mixture containing lactase and trehalose was freeze dried, as follows. A 20% aqueous solution of trehalose was prepared by dissolving 88.9 g (9.1% moisture) of trehalose in 311.0 g of deionized water. Enzeco® Fungal Lactase Concentrate, 1.0 g was added to the slurry and stirred for-one hour. A 20.0 ml aliquot of the mixture was removed as a control (sample 8E). The remaining sample was poured into two separate freeze drying pans and each was freeze dried according to the temperature profile in Table 3. The temperature profile shown in column 8F of Table 3 represents the temperature profile of only one of the two samples in the freeze drying pans. The freeze dryer was a Virtis Genesis 25XL unit. Final vacuum of the system was 11.8 mtorr. After freeze drying, the material was removed from the pans and evaluated for enzyme activity as described in the previous example. The enzyme activity in column 8F of Table 4 represents an average of the enzyme activities for each of the two samples in the freeze drying pans.
# The enzymatic activities shown in Table 4 are expressed as the percentage of glucose liberated in the enzyme assay as measured by the amount of glucose liberated divided by the maximum amount of glucose that can be theoretically liberated.
smiles,measurement,setting,value
"NCCCC[C@H](N)C(=O)O [Control (lysine only), L-lysine]",UV absorption (450 nm),[1]; time 0 min,0.044
same,UV absorption (450 nm),[1]; time 20 min,0.043
same,UV absorption (450 nm),[1]; time 35 min,0.044
same,UV absorption (450 nm),[1]; time 50 min,0.046
same,UV absorption (450 nm),[1]; time 65 min,0.047
same,UV absorption (450 nm),[1]; time 80 min,0.048
same,UV absorption (450 nm),[1]; time 100 min,0.050
same,UV absorption (450 nm),[1]; time 110 min,0.050
same,UV absorption (450 nm),[1]; time 125 min,0.051
same,UV absorption (450 nm),[1]; time 170 min,0.055
same,UV absorption (450 nm),[1]; time 185 min,0.057
same,UV absorption (450 nm),[1]; time 200 min,0.057
same,UV absorption (450 nm),[1]; time 215 min,0.059
same,UV absorption (450 nm),[1]; time 230 min,0.059
same,UV absorption (450 nm),[1]; time 245 min,0.058
same,UV absorption (450 nm),[1]; time 260 min,0.061
same,UV absorption (450 nm),[1]; time 305 min,0.061
same,UV absorption (450 nm),[1]; time 320 min,0.063
same,UV absorption (450 nm),[1]; time 335 min,0.063
same,UV absorption (450 nm),[1]; time 350 min,0.063
same,UV absorption (450 nm),[1]; time 365 min,0.064
same,UV absorption (450 nm),[1]; time 380 min,0.065
"OC[C@H]1O[C@H](O[C@H]2O[C@H](CO)[C@@H](O)[C@H](O)[C@H]2O)[C@H](O)[C@@H](O)[C@@H]1O [Trehalose, trehalose]",% Yeast Survival,[2],58.0 (trehalase) %
same,% activity (freeze dried sample divided by control sample not freeze dried),[3]; Avg. over assay times,86.6%
same,% activity (freeze dried sample divided by control sample not freeze dried),[3]; lactase assay time 0 h,0%
same,% activity (freeze dried sample divided by control sample not freeze dried),[3]; lactase assay time 0.05 h,72.4%
same,% activity (freeze dried sample divided by control sample not freeze dried),[3]; lactase assay time 0.5 h,90.0%
same,% activity (freeze dried sample divided by control sample not freeze dried),[3]; lactase assay time 1 h,90.7%
same,% activity (freeze dried sample divided by control sample not freeze dried),[3]; lactase assay time 2 h,93.2%
